System: MV-4-11 cells
Test: Gene expression microarray analysis (Affymetrix PrimeView) and GSEA
Assay type: cell-based, human
Parameters: RFU PODN (11730768_x_at) / Fold change /veh PODN (11730768_x_at) / RFU LINC00158 (11744669_a_at) / Fold change /veh LINC00158 (11744669_a_at) / RFU DUSP10 (11751237_a_at) / Fold change /veh DUSP10 (11751237_a_at) / RFU ID3 (11757404_x_at) / Fold change /veh ID3 (11757404_x_at) / RFU PLEKHG5 (11737974_s_at) / Fold change /veh PLEKHG5 (11737974_s_at) / RFU LRRC4B (11730491_at) / Fold change /veh LRRC4B (11730491_at) / RFU GIMAP4 (11747438_a_at) / Fold change /veh GIMAP4 (11747438_a_at) / RFU KRT8 (11758183_x_at) / Fold change /veh KRT8 (11758183_x_at) / RFU CNN1 (11734310_a_at) / Fold change /veh CNN1 (11734310_a_at) / RFU VPS37D (11726825_at) / Fold change /veh VPS37D (11726825_at) / RFU C10orf10 (11716522_x_at) / Fold change /veh C10orf10 (11716522_x_at) / RFU KIR2DL2 /// KIR2DL4 /// KIR2DL5A /// KIR2DL5B /// KIR2DS1 /// KIR2DS2 /// KIR2DS3 /// KIR2DS4 /// KIR3DL3 /// KIR3DL3 /// KIR3DS1 (11738374_at) / Fold change /veh KIR2DL2 /// KIR2DL4 /// KIR2DL5A /// KIR2DL5B /// KIR2DS1 /// KIR2DS2 /// KIR2DS3 /// KIR2DS4 /// KIR3DL3 /// KIR3DL3 /// KIR3DS1 (11738374_at) / RFU C1QL1 (11718748_at) / Fold change /veh C1QL1 (11718748_at) / RFU TMPRSS4 (11747572_a_at) / Fold change /veh TMPRSS4 (11747572_a_at) / RFU HAMP (11756126_x_at) / Fold change /veh HAMP (11756126_x_at) / RFU RNFT2 (11725882_a_at) / Fold change /veh RNFT2 (11725882_a_at) / RFU NR4A2 (11747474_a_at) / Fold change /veh NR4A2 (11747474_a_at) / RFU ABCC12 (11746883_a_at) / Fold change /veh ABCC12 (11746883_a_at) / RFU TMEM136 (11760407_x_at) / Fold change /veh TMEM136 (11760407_x_at) / RFU CLDN22 /// WWC2 (11732394_at) / Fold change /veh CLDN22 /// WWC2 (11732394_at) / RFU HLA-DPB1 (11760878_x_at) / Fold change /veh HLA-DPB1 (11760878_x_at) / RFU SPINT1 (11716480_a_at) / Fold change /veh SPINT1 (11716480_a_at) / RFU GAP43 (11754022_s_at) / Fold change /veh GAP43 (11754022_s_at) / RFU A4GNT (11735810_at) / Fold change /veh A4GNT (11735810_at) / RFU PRB3 (11715151_x_at) / Fold change /veh PRB3 (11715151_x_at) / RFU TUBB4B (11761932_at) / Fold change /veh TUBB4B (11761932_at) / RFU CAPN14 (11732068_a_at) / Fold change /veh CAPN14 (11732068_a_at) / RFU TMCC2 (11721928_a_at) / Fold change /veh TMCC2 (11721928_a_at) / RFU IRGQ (11745062_a_at) / Fold change /veh IRGQ (11745062_a_at) / RFU FAM174B (11720279_a_at) / Fold change /veh FAM174B (11720279_a_at) / RFU TMPRSS4 (11748680_a_at) / Fold change /veh TMPRSS4 (11748680_a_at) / RFU FAM212B (11763350_a_at) / Fold change /veh FAM212B (11763350_a_at) / RFU PLEKHG5 (11743358_a_at) / Fold change /veh PLEKHG5 (11743358_a_at) / RFU ZSCAN30 (11745921_a_at) / Fold change /veh ZSCAN30 (11745921_a_at) / RFU CMKLR1 (11741424_a_at) / Fold change /veh CMKLR1 (11741424_a_at) / RFU LOC101060620 /// MAPK8IP1 (11723275_at) / Fold change /veh LOC101060620 /// MAPK8IP1 (11723275_at) / RFU SPTSSB (11747773_x_at) / Fold change /veh SPTSSB (11747773_x_at) / RFU PRSS12 (11739890_at) / Fold change /veh PRSS12 (11739890_at) / RFU BIN1 (11741810_x_at) / Fold change /veh BIN1 (11741810_x_at) / RFU WNT11 (11732464_a_at) / Fold change /veh WNT11 (11732464_a_at) / RFU C10orf10 (11716521_a_at) / Fold change /veh C10orf10 (11716521_a_at) / RFU C5orf56 (11738089_at) / Fold change /veh C5orf56 (11738089_at) / RFU CYB561 (11721691_x_at) / Fold change /veh CYB561 (11721691_x_at) / RFU ANKRD19P (11752326_a_at) / Fold change /veh ANKRD19P (11752326_a_at) / RFU OR2T12 /// OR2T33 /// OR2T8 (11738714_s_at) / Fold change /veh OR2T12 /// OR2T33 /// OR2T8 (11738714_s_at) / RFU VCAN (11748164_a_at) / Fold change /veh VCAN (11748164_a_at) / RFU JSRP1 (11732532_at) / Fold change /veh JSRP1 (11732532_at) / RFU KRTAP10-11 (11738290_x_at) / Fold change /veh KRTAP10-11 (11738290_x_at) / RFU MYO3A (11730013_a_at) / Fold change /veh MYO3A (11730013_a_at) / RFU EBF3 (11725865_a_at) / Fold change /veh EBF3 (11725865_a_at) / RFU CAMK2N1 (11719241_x_at) / Fold change /veh CAMK2N1 (11719241_x_at) / RFU C5orf56 (11738088_a_at) / Fold change /veh C5orf56 (11738088_a_at) / RFU OLFML3 (11715873_a_at) / Fold change /veh OLFML3 (11715873_a_at) / RFU LOC100653217 /// NTM (11731650_a_at) / Fold change /veh LOC100653217 /// NTM (11731650_a_at) / RFU MAPK11 (11762145_a_at) / Fold change /veh MAPK11 (11762145_a_at) / RFU FIZ1 (11724087_x_at) / Fold change /veh FIZ1 (11724087_x_at) / RFU OASL (11726364_x_at) / Fold change /veh OASL (11726364_x_at) / RFU SOX15 (11748057_x_at) / Fold change /veh SOX15 (11748057_x_at) / RFU CD79A (11719716_a_at) / Fold change /veh CD79A (11719716_a_at) / RFU HIST1H1D (11736915_at) / Fold change /veh HIST1H1D (11736915_at) / RFU CASKIN2 (11723855_a_at) / Fold change /veh CASKIN2 (11723855_a_at) / RFU LOC730098 (11760151_x_at) / Fold change /veh LOC730098 (11760151_x_at) / RFU OR4N2 (11742367_at) / Fold change /veh OR4N2 (11742367_at) / RFU PRRT2 (11749266_a_at) / Fold change /veh PRRT2 (11749266_a_at) / RFU SNX32 (11753110_a_at) / Fold change /veh SNX32 (11753110_a_at) / RFU CDHR5 (11726645_a_at) / Fold change /veh CDHR5 (11726645_a_at) / RFU RCAN1 (11760418_a_at) / Fold change /veh RCAN1 (11760418_a_at) / RFU FAM167A (11723789_a_at) / Fold change /veh FAM167A (11723789_a_at) / RFU FAM26E (11764081_at) / Fold change /veh FAM26E (11764081_at) / RFU ISYNA1 (11749810_s_at) / Fold change /veh ISYNA1 (11749810_s_at) / RFU ACY1 (11761880_at) / Fold change /veh ACY1 (11761880_at) / RFU 11764098_at / Fold change /veh 11764098_at / RFU SAMD14 (11745864_x_at) / Fold change /veh SAMD14 (11745864_x_at) / RFU NPB (11741838_a_at) / Fold change /veh NPB (11741838_a_at) / RFU TMPRSS6 (11731388_a_at) / Fold change /veh TMPRSS6 (11731388_a_at) / RFU KRTAP10-2 (11738614_at) / Fold change /veh KRTAP10-2 (11738614_at) / RFU ARHGAP8 /// PRR5-ARHGAP8 (11727945_x_at) / Fold change /veh ARHGAP8 /// PRR5-ARHGAP8 (11727945_x_at) / RFU KRTAP5-7 /// NADSYN1 (11734609_at) / Fold change /veh KRTAP5-7 /// NADSYN1 (11734609_at) / RFU RASL12 (11751679_a_at) / Fold change /veh RASL12 (11751679_a_at) / RFU CDKN2B (11736163_a_at) / Fold change /veh CDKN2B (11736163_a_at) / RFU PRF1 (11729649_at) / Fold change /veh PRF1 (11729649_at) / RFU, ZNF638 /// ZNF638-IT1 / Fold change vs veh, ZNF638 /// ZNF638-IT1 / RFU, PANK3 / Fold change vs veh, PANK3 / RFU, SH3YL1 / Fold change vs veh, SH3YL1 / RFU, ZEB2 / Fold change vs veh, ZEB2 / RFU, NRIP1 / Fold change vs veh, NRIP1 / RFU, PTTG1IP / Fold change vs veh, PTTG1IP / RFU, CAPN2 / Fold change vs veh, CAPN2 / RFU, MED14 / Fold change vs veh, MED14 / RFU, SNORA58 / Fold change vs veh, SNORA58 / RFU, C1orf63 / Fold change vs veh, C1orf63 / RFU, LRRFIP1 / Fold change vs veh, LRRFIP1 / RFU, NDUFAF7 / Fold change vs veh, NDUFAF7 / RFU, SLC12A2 / Fold change vs veh, SLC12A2 / RFU, IBTK / Fold change vs veh, IBTK / RFU, ESF1 / Fold change vs veh, ESF1 / Fold change vs veh, TMEM50B / RFU, TAOK1 / Fold change vs veh, TAOK1 / RFU, ACBD3 / Fold change vs veh, ACBD3 / RFU, TMA16 / Fold change vs veh, TMA16 / RFU, RWDD3 / Fold change vs veh, RWDD3 / RFU, BCAT1 / Fold change vs veh, BCAT1 / RFU, EDEM3 / Fold change vs veh, EDEM3 / RFU, TMEM33 / Fold change vs veh, TMEM33 / RFU, WDR75 / Fold change vs veh, WDR75 / RFU, AHCTF1 / Fold change vs veh, AHCTF1 / RFU, TFRC / Fold change vs veh, TFRC / RFU, ZDHHC17 / Fold change vs veh, ZDHHC17 / RFU, NOM1 / Fold change vs veh, NOM1 / RFU, ARL8B / Fold change vs veh, ARL8B / RFU, ZBTB11 / Fold change vs veh, ZBTB11 / RFU, TAMM41 / Fold change vs veh, TAMM41 / RFU, KIAA1704 /// LOC100996395 / Fold change vs veh, KIAA1704 /// LOC100996395 / RFU, ING1 / Fold change vs veh, ING1 / RFU, TRMT61B / Fold change vs veh, TRMT61B / RFU, FUBP3 / Fold change vs veh, FUBP3 / RFU, TP53 / Fold change vs veh, TP53 / RFU, TNKS2 / Fold change vs veh, TNKS2 / RFU, ZFP14 / Fold change vs veh, ZFP14 / RFU, ACTR2 / Fold change vs veh, ACTR2 / RFU, PPP3R1 / Fold change vs veh, PPP3R1 / RFU, PIK3R1 / Fold change vs veh, PIK3R1 / RFU, HNRNPA1 / Fold change vs veh, HNRNPA1 / RFU, RNF170 / Fold change vs veh, RNF170 / RFU, ZNF28 / Fold change vs veh, ZNF28 / RFU, RNGTT / Fold change vs veh, RNGTT / RFU, OGT / Fold change vs veh, OGT / RFU, BRD1 / Fold change vs veh, BRD1 / RFU, MARS / Fold change vs veh, MARS / RFU, ZNF655 / Fold change vs veh, ZNF655 / RFU, FAHD1 / Fold change vs veh, FAHD1 / RFU, BDP1 / Fold change vs veh, BDP1 / RFU, LRRCC1 / Fold change vs veh, LRRCC1 / RFU, ARID1A / Fold change vs veh, ARID1A / RFU, ZNF146 / Fold change vs veh, ZNF146 / RFU, ZNF330 / Fold change vs veh, ZNF330 / RFU, GPN3 / Fold change vs veh, GPN3 / RFU, C9orf123 / Fold change vs veh, C9orf123 / RFU, N4BP2L2 / Fold change vs veh, N4BP2L2 / RFU, ARFIP1 / Fold change vs veh, ARFIP1 / RFU, FAM179B / Fold change vs veh, FAM179B / RFU, BCL10 / Fold change vs veh, BCL10 / RFU, UHRF1BP1L / Fold change vs veh, UHRF1BP1L / RFU, BET1 / Fold change vs veh, BET1 / RFU, CNOT2 / Fold change vs veh, CNOT2 / RFU, ZNF268 / Fold change vs veh, ZNF268 / Fold change vs veh, ZNF507 / RFU, DGCR2 / Fold change vs veh, DGCR2 / RFU, WDSUB1 / Fold change vs veh, WDSUB1 / Fold change vs veh, HSP90B1 /// MIR3652 / RFU, ADSS / Fold change vs veh, ADSS / RFU, GK / Fold change vs veh, GK / RFU, ZNF148 / Fold change vs veh, ZNF148 / RFU, TAF9 / Fold change vs veh, TAF9 / RFU, SLC1A5 / Fold change vs veh, SLC1A5 / RFU, SLMO2 / Fold change vs veh, SLMO2 / RFU, ABCC4 / Fold change vs veh, ABCC4 / RFU, LOC101060439 /// RAP1B / Fold change vs veh, LOC101060439 /// RAP1B / RFU, RFX7 / Fold change vs veh, RFX7 / RFU, GTPBP10 / Fold change vs veh, GTPBP10 / RFU, CNEP1R1 / Fold change vs veh, CNEP1R1 / RFU, BIVM-ERCC5 /// ERCC5 / Fold change vs veh, BIVM-ERCC5 /// ERCC5 / RFU, ILF3 / Fold change vs veh, ILF3 / RFU 11762660_at / Fold change /veh 11762660_at / RFU VCAN (11757783_s_at) / Fold change /veh VCAN (11757783_s_at) / RFU DDX43 (11728927_at) / Fold change /veh DDX43 (11728927_at) / RFU KRT8 (11758188_x_at) / Fold change /veh KRT8 (11758188_x_at) / RFU NKD1 (11759106_at) / Fold change /veh NKD1 (11759106_at) / RFU SRD5A1 (11742802_a_at) / Fold change /veh SRD5A1 (11742802_a_at) / RFU TPSAB1 /// TPSB2 (11721975_s_at) / Fold change /veh TPSAB1 /// TPSB2 (11721975_s_at) / RFU GSTM3 (11746129_a_at) / Fold change /veh GSTM3 (11746129_a_at) / RFU IL23R (11737362_x_at) / Fold change /veh IL23R (11737362_x_at) / RFU TMEM51 (11727254_a_at) / Fold change /veh TMEM51 (11727254_a_at) / RFU PIWIL2 (11732686_x_at) / Fold change /veh PIWIL2 (11732686_x_at) / RFU ORM1 (11744905_x_at) / Fold change /veh ORM1 (11744905_x_at) / RFU CCDC152 (11743942_at) / Fold change /veh CCDC152 (11743942_at) / RFU ECM1 (11717891_a_at) / Fold change /veh ECM1 (11717891_a_at) / RFU IL23R (11748794_a_at) / Fold change /veh IL23R (11748794_a_at) / RFU TNFAIP8L3 (11732012_x_at) / Fold change /veh TNFAIP8L3 (11732012_x_at) / RFU MBOAT4 (11741988_at) / Fold change /veh MBOAT4 (11741988_at) / RFU 11764193_at / Fold change /veh 11764193_at / RFU TMEM53 (11763286_at) / Fold change /veh TMEM53 (11763286_at) / RFU MAGEB2 (11727129_at) / Fold change /veh MAGEB2 (11727129_at) / RFU TMEM200A (11744735_a_at) / Fold change /veh TMEM200A (11744735_a_at) / RFU CCDC152 (11751479_a_at) / Fold change /veh CCDC152 (11751479_a_at) / RFU FAM211A (11726209_a_at) / Fold change /veh FAM211A (11726209_a_at) / RFU RGS16 (11746705_a_at) / Fold change /veh RGS16 (11746705_a_at) / RFU VCAN (11755009_s_at) / Fold change /veh VCAN (11755009_s_at) / RFU RHOB (11743442_s_at) / Fold change /veh RHOB (11743442_s_at) / RFU RGS16 (11720943_a_at) / Fold change /veh RGS16 (11720943_a_at) / RFU RGS16 (11720944_at) / Fold change /veh RGS16 (11720944_at) / RFU, VPS4B / Fold change vs veh, VPS4B / RFU, CREB1 / Fold change vs veh, CREB1 / RFU, DNAJC13 / Fold change vs veh, DNAJC13 / RFU, GNAQ / Fold change vs veh, GNAQ / RFU, CDK5R1 / Fold change vs veh, CDK5R1 / RFU, ZRANB3 / Fold change vs veh, ZRANB3 / RFU, CUL4A / Fold change vs veh, CUL4A / RFU, CCNY / Fold change vs veh, CCNY / RFU, UFL1 / Fold change vs veh, UFL1 / RFU, COG3 / Fold change vs veh, COG3 / RFU, DIAPH2 / Fold change vs veh, DIAPH2 / RFU, SKA2 / Fold change vs veh, SKA2 / RFU, AFF3 / Fold change vs veh, AFF3 / RFU, LMF1 / Fold change vs veh, LMF1 / RFU, IPO11 / Fold change vs veh, IPO11 / RFU, DFFB / Fold change vs veh, DFFB / RFU, FOXP1 / Fold change vs veh, FOXP1 / RFU, CARD8 / Fold change vs veh, CARD8 / RFU, STRN3 / Fold change vs veh, STRN3 / RFU, ADK / Fold change vs veh, ADK / RFU, RASSF2 / Fold change vs veh, RASSF2 / RFU, WIPF1 / Fold change vs veh, WIPF1 / RFU, LARP1B / Fold change vs veh, LARP1B / RFU, RASA1 / Fold change vs veh, RASA1 / RFU, RB1 / Fold change vs veh, RB1 / RFU, PPFIA1 / Fold change vs veh, PPFIA1 / RFU, MAT2A / Fold change vs veh, MAT2A / RFU, CCT5 / Fold change vs veh, CCT5 / RFU, WDR92 / Fold change vs veh, WDR92 / RFU, CUX1 / Fold change vs veh, CUX1 / RFU, TTC7A / Fold change vs veh, TTC7A / RFU, TMEM135 / Fold change vs veh, TMEM135 / RFU, DEPTOR / Fold change vs veh, DEPTOR / RFU, CPM / Fold change vs veh, CPM / RFU, DNAJB6 / Fold change vs veh, DNAJB6 / RFU, CACNA2D3 / Fold change vs veh, CACNA2D3 / RFU, DTX4 / Fold change vs veh, DTX4 / RFU, TFCP2 / Fold change vs veh, TFCP2 / RFU, GMCL1 /// GMCL1P1 / Fold change vs veh, GMCL1 /// GMCL1P1 / RFU, AEBP2 / Fold change vs veh, AEBP2 / RFU, SNHG1 /// SNORD22 /// SNORD25 /// SNORD26 /// SNORD27 /// SNORD28 /// SNORD29 /// SNORD31 / Fold change vs veh, SNHG1 /// SNORD22 /// SNORD25 /// SNORD26 /// SNORD27 /// SNORD28 /// SNORD29 /// SNORD31 / Fold change (Aza/veh), C12orf56 (ProbeSet 11735607_a_at) / Fold change (ACY-1035/veh), C12orf56 (ProbeSet 11735607_a_at) / Fold change (Aza/veh), FGFR1OP (ProbeSet 11751329_s_at) / Fold change (ACY-1035/veh), FGFR1OP (ProbeSet 11751329_s_at) / Fold change (Aza/veh), VPS36 (ProbeSet 11739960_a_at) / Fold change (ACY-1035/veh), VPS36 (ProbeSet 11739960_a_at) / RFU SYPL1 (11715823_x_at) / Fold change /veh SYPL1 (11715823_x_at) / RFU IGFBP7 (11715501_s_at) / Fold change /veh IGFBP7 (11715501_s_at) / RFU REEP3 (11722064_at) / Fold change /veh REEP3 (11722064_at) / RFU IGLL1 (11728026_x_at) / Fold change /veh IGLL1 (11728026_x_at): dose or concentration left out as unconfirmed
Details: ProbeSet 11748335_a_at; LIST B

In the case of `Nc1ccc(-c2cccs2)cc1NC(=O)c1ccc2c(c1)cc(C1CC1)n2CCN1CCOCC1` [ACY-1035], the “Fold change vs veh, SLMO2” value is reported as 0.88.

Source: paper PMC5218480 (PLoS ONE, 2017)
